Experimental data: US9879028B2, “Compounds that modulate EGFR activity and methods for treating or preventing conditions therewith” (Gatekeeper Pharmaceuticals, Inc., priority 2009, dated 2018)

Legend:
[1] = system: EGFR Del 19/T790M Ba/F3 cells; experiment: MTS cell proliferation and growth assay in EGFR mutant Ba/F3 cells (Del 19/T790M); assay type: cell-based; details: Mus musculus, BaF3, 72 hours
Text: (§1) The EGFR and iERBB2 mutant Ba/F3 cells and the NIH-3T3 cells have been previously characterized (Engelman, J. A. et al. Cancer Res 67, 11924-32 (2007); Yuza, Y. et al. Cancer Biol Ther 6 (2007)). The EGFR C797S and the ERBB2 T798I mutations are introduced using site directed mutagenesis using the Quick Change Site-Directed Mutagenesis kit (Stratagene; La Jolla, Calif.) according to the manufacturer's instructions (Mukohara, T. et al. J Natl Cancer Inst 97, 1185-94 (2005)). The oligonucleotide sequences are available upon request. All constructs are confirmed by DNA sequencing. The constructs are shuttled into the retroviral vector JP1540 using the BD Creator™ System (BD Biosciences). Ba/F3 of NIH-3T3 cells are infected with retrovirus according to standard protocols, as described previously (Engelman, J. A. et al. Proc Natl Acad Sci USA 102, 3788-93 (2005); Zhao, J. J. et al. Cancer Cell 3, 483-95 (2003)). Stable populations are obtained by selection in puromycin (2 μg/ml).
(§2) Growth and inhibition of growth is assessed by MTS assay. […]
(§3) Activity of various compounds of the invention was determined in vitro in EGFR mutant Ba/F3 cells according to the procedures set forth in Example 1.

[2] = system: EGFR L858R/T790M Ba/F3 cells; experiment: MTS cell proliferation and growth assay in EGFR mutant Ba/F3 cells (L858R/T790M); assay type: cell-based; details: Mus musculus, BaF3, 72 hours
Text: as §1, §2, §3

[3] = system: lung cancer; details: lung cancer patients; cited from earlier work

IC50 [1] | IC50 [2] | SMILES | median time to tumor progression [3]
435 nM | 688 nM | C=CC(=O)Nc1cccc(Oc2nc(Nc3ccc(N4CCN(C)CC4)cc3OC)nc3ccccc23)c1 [IV-1, N-(3-((2-((2-methoxy-4-(4-methylpiperazin-1-yl)phenyl)amino)quinazolin-4-yl)oxy)phenyl)acrylamide] | 
864 nM | 2160 nM | C=CC(=O)Nc1cccc(-c2csc3cnc(Nc4ccc(N5CCN(C)CC5)cc4OC)nc23)c1 [VIII-1, N-(3-(2-((2-methoxy-4-(4-methylpiperazin-1-yl)phenyl)amino)thieno[3,2-d]pyrimidin-7-yl)phenyl)acrylamide] | 
 |  | C#Cc1cccc(Nc2ncnc3cc(OCCOC)c(OCCOC)cc23)c1 [erlotinib] | approximately 2 months
 |  | COc1cc2ncnc(Nc3ccc(F)c(Cl)c3)c2cc1OCCCN1CCOCC1 [gefitinib] | approximately 2 months
